Reference: patent US20230286973A1, “PROTEIN SECRETION INHIBITORS” (KEZAR LIFE SCIENCES, priority 2020, published 2023)
Like-named read-outs stand apart in the source and are kept apart here.

Experiments:
[1] = Liver Microsome Stability Assay (rat); settings: rat liver microsomes, with NADPH, 1.0 uM compound
Description: (§1) Stability of a compound was assessed in the presence of liver microsomes from various sources—mouse, rat, monkey and human liver microsomes. 1.0 uM compound, 0.4% DMSO in 0.1 M Potassium Phosphate with 1.0 mg/mL liver microsomes, were incubated at 37° C. with or without 1 mM NADPH. The samples were quenched at 0, and 30 minutes.

[2] = tested on: IL-2-FL/Gaussia Luciferase; test: Dox Induced IL2-FL-Gluc Assay; assay type: cell-based; settings: for IC50: 24 hr Dox induction, 293FRT/TO cells, read-out: 24 hr Dox Inducible IL2FLGluc 293FRT/TO: Mean IC50; for 24 hr Dox Inducible IL2FLGluc 293FRT/TO: IL2/PD1: ratio of IL2FLGluc IC50 to PD1ssGluc IC50
Summary of the method: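 Stable Flp-In 293 T-REx line, Tet-regulated IL-2 (aa 1-153)–Gaussia luciferase fusion; hygromycin/blasticidin selected. Plated day -1; compound + doxycycline added next day; 37° C, 5% CO2.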

[3] = tested on: multiple myeloma cell line NCI-H929; test: H929 Cell Viability Assay; assay type: cell-based, human; settings: Homo sapiens, NCI-H929, 48 h, NCI-H929 cells, Celltiter-Glo
Summary of the method: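 Cells in RPMI 1640/10% FBS; compound dilutions in DMSO/media; 48 h, 37° C, 5% CO2; CellTiter-Glo luciferase readout for viability.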

[4] = tested on: multiple myeloma cell line U266B1; test: U266 Cell Viability Assay; assay type: cell-based, human; settings: Homo sapiens, U-266, 48 h, U266B1 cells, Celltiter-Glo
Summary of the method: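 Luminescent ATP read-out (CellTiter-Glo) after 48 h compound exposure at 37° C., 5% CO2; cells maintained in RPMI 1640/10% FBS/2 mM glutamine/pen-strep, compounds diluted in DMSO/media.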

[5] = Liver Microsome Stability Assay (mouse); settings: mouse liver microsomes, with NADPH, 1.0 uM compound
Description: as §1

[6] = Liver Microsome Stability Assay (human); settings: human liver microsomes, with NADPH, 1.0 uM compound
Description: as §1

[7] = tested on: HER3-ss+4aa/Gaussia Luciferase; test: Dox-Induced Her3-ss-Gluc Assay; assay type: cell-based; settings: 24 hr Dox induction, 293FRT/TO cells, read-out: 24 hr Dox Inducible Her3(ss + 4)Gluc 293FRT/TO: Mean IC50
Summary of the method: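 Flp-In 293 T-REx cells, stable HER3-ss+4aa/Gaussia luciferase insert, hygromycin/blasticidin selected; plated day before; compound in DMSO/media + doxycycline; 37° C., 5% CO2.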

[8] = tested on: TNFα-FL/Gaussia Luciferase; test: Dox Induced TNFα-FL-Gluc Assay; assay type: cell-based; settings: for IC50: 24 hr Dox induction, 293FRT/TO cells, read-out: 24 hr Dox Inducible TNFaFLGluc 293FRT/TO: Mean IC50; for 24 hr Dox Inducible TNFaFLGluc 293FRT/TO: TNF/PD1: ratio of TNFaFLGluc IC50 to PD1ssGluc IC50
Summary of the method: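 Cell line: stable Flp-In 293 T-REx, TNFα-FL(1-233)-Gaussia luciferase fusion, T-REx-inducible. Plated day -1; compounds in DMSO/media + doxycycline, 37 °C, 5% CO2. Undefined stereocentres = mixture tested.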

[9] = tested on: PD1-ss+10aa/Gaussia Luciferase; test: Dox-Induced PD1-ss-Gluc Assay; assay type: cell-based; settings: 24 hr Dox induction, 293FRT/TO cells, read-out: 24 hr Dox Inducible PD1ssGluc 293FRT/TO: Mean IC50
Summary of the method: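 Stable Flp-In 293 T-REx cells carried a doxycycline-inducible construct of Gaussia luciferase fused to the PD1 signal sequence plus 10 amino acids. Cells were plated the day before, then treated with compound dilutions in DMSO/media containing doxycycline at 37 °C, 5% CO2.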

[10] = Liver Microsome Stability Assay (monkey); settings: monkey liver microsomes, with NADPH, 1.0 uM compound
Description: as §1

[11] = '<=>' given where both are I.A.

Row | Compound | Liver Microsome Stability (Multiple Species): Rat - % Remaining after 30 min w/NADPH [1] | IC50 ([2]; mean) | EC50 [3] | EC50 [4] | Liver Microsome Stability (Multiple Species): Mouse - % Remaining after 30 min w/NADPH [5] | Liver Microsome Stability (Multiple Species): Human - % Remaining after 30 min w/NADPH [6] | IC50 ([7]; mean) | IC50 ([8]; mean) | IC50 ([9]; mean) | Liver Microsome Stability (Multiple Species): Monkey - % Remaining after 30 min w/NADPH [10] | IC50 [2] | IC50 [7] | IC50 [8] | IC50 [9] | 24 hr Dox Inducible IL2FLGluc 293FRT/TO: IL2/PD1 [2, 11] | 24 hr Dox Inducible TNFaFLGluc 293FRT/TO: TNF/PD1 [8, 11] | 24 hr Dox Inducible IL2FLGluc 293FRT/TO: IL2/PD1 [2] | 24 hr Dox Inducible TNFaFLGluc 293FRT/TO: TNF/PD1 [8]
1 | CCOC(=O)Nc1ccc(N2CCC[C@@H]2c2csc(NC(=O)c3cccn3Cc3ccnc(F)c3)n2)cc1 [Compound A145, ethyl (R)-(4-(2-(2-(1-((2-fluoropyridin-4-yl)methyl)-1H-pyrrole-2-carboxamido)thiazol-4-yl)pyrrolidin-1-yl)phenyl)carbamate] | 46% | – | 13.5 nM | > 25000 nM | 25.1% | 41.5% | – | – | – | 18% | 1.11 nM | 0.83 nM | 7.51 nM | 0.31 nM | – | – | 3.6 | 24
2 | CC(=O)N1CCC(Oc2ccc(N3CCC[C@@H]3c3csc(NC(=O)c4cccn4Cc4ccnc(F)c4)n3)c(C#N)c2)CC1 [Compound A133, (R)-N-(4-(1-(4-((1-acetylpiperidin-4-yl)oxy)-2-cyanophenyl)pyrrolidin-2-yl)thiazol-2-yl)-1-((2-fluoropyridin-4-yl)methyl)-1H-pyrrole-2-carboxamide] | 1.42% | – | 2010 nM | > 25000 nM | 0.98% | 0.61% | – | – | – | 0.15% | 81.7 nM | 64.2 nM | 893 nM | 61 nM | – | – | 1.3 | 14.6

Further lines, with some results ahead:

Row | Liver Microsome Stability (Multiple Species): Rat - % Remaining after 30 min w/NADPH [1] | IC50 ([2]; mean) | EC50 [3] | EC50 [4] | Liver Microsome Stability (Multiple Species): Mouse - % Remaining after 30 min w/NADPH [5] | Liver Microsome Stability (Multiple Species): Human - % Remaining after 30 min w/NADPH [6] | IC50 ([7]; mean) | IC50 ([8]; mean) | IC50 ([9]; mean) | Liver Microsome Stability (Multiple Species): Monkey - % Remaining after 30 min w/NADPH [10] | IC50 [2] | IC50 [7] | IC50 [8] | IC50 [9] | Compound | 24 hr Dox Inducible IL2FLGluc 293FRT/TO: IL2/PD1 [2, 11] | 24 hr Dox Inducible TNFaFLGluc 293FRT/TO: TNF/PD1 [8, 11] | 24 hr Dox Inducible IL2FLGluc 293FRT/TO: IL2/PD1 [2] | 24 hr Dox Inducible TNFaFLGluc 293FRT/TO: TNF/PD1 [8]
3 | 11.5% | > 25000 nM | > 25000 nM | > 25000 nM | 3.23% | 0.87% | 12200 nM | > 25000 nM | 7980 nM | 2.48% | – | – | – | – | CN(C)C(=O)CCn1cccc1C(=O)Nc1nc([C@H]2CCCN2c2ccccc2)cs1 [Compound C59, (R)-1-(3-(dimethylamino)-3-oxopropyl)-N-(4-(1-phenylpyrrolidin-2-yl)thiazol-2-yl)-1H-pyrrole-2-carboxamide] | 3.1 | >3.13 | – | –
4 | 3.44% | – | 15200 nM | 10400 nM | 0.31% | 0.41% | – | – | – | 0.17% | 1850 nM | 1610 nM | > 25000 nM | 910 nM | O=C(Nc1nc(/C=C/C2CN(S(=O)(=O)c3ccccc3)CCO2)cs1)c1cccn1Cc1ccncc1 (stereo not drawn) [Compound B9, (E)-N-(4-(2-(4-(phenylsulfonyl)morpholin-2-yl)vinyl)thiazol-2-yl)-1-(pyridin-4-ylmethyl)-1H-pyrrole-2-carboxamide] | – | – | 2 | >27.5
5 | 0.18% | – | 9920 nM | 14100 nM | 1.23% | 0.15% | – | – | – | 0.04% | > 25000 nM | > 25000 nM | > 25000 nM | 132 nM | CC(C)c1ccc(/C=C/c2csc(NC(=O)c3cccn3Cc3cc(F)nc(F)c3)n2)nc1 [Compound B87, (E)-1-((2,6-difluoropyridin-4-yl)methyl)-N-(4-(2-(5-isopropylpyridin-2-yl)vinyl)thiazol-2-yl)-1H-pyrrole-2-carboxamide] | – | – | >190 | >189
